Measurements: patent US20210379158A1, “METHOD FOR PREVENTING OR TREATING HEART FAILURE BY ADMINISTERING A MEDICAMENT CONTAINING AN ANTAGONIST OF CORTICOTROPIN RELEASING HORMONE RECEPTOR 2 (CRHR2)” (RaQualia Pharma Inc., priority 2017, published 2021)
No end group written: not given here.

How the values were obtained:
Crhr2 [1] = assay: Pressure overload-induced cardiac dysfunction (TAC) in mice, continuous infusion initiated 1 wk after TAC; type: in vivo, mouse
Method: (§1) 8-10-week-old male mice were anesthetized with 50 mg/kg sodium pentobarbital, and osmotic minipumps (Alzet) containing Ucn2 (25, 50, 100 ng/g/day; Peptide Institute) or antisauvagine-30 (100 ng/g/day; Medical & Biological Laboratories) were implanted subcutaneously in the back for 4 wk.
TAC was performed under anesthesia and intubation. The chest was opened to visualize the aortic arch. The transverse aorta was then ligated between the right innominate and left common carotid arteries against a blunted 24-G needle with a 7-0 suture. The sham procedure was identical except that the aorta was not ligated.
(§2) Transthoracic echocardiography was performed on mice anesthetized with 50 mg/kg sodium pentobarbital. The left ventricular (LV) end-systolic diameter and the LV end-diastolic diameters were measured to calculate the % LV fractional shortening (% FS) in M-mode using an Acuson Sequoia C-512 (Siemens) with a 15-MHz probe. Systolic blood pressure (SBP) was measured by tail cuff method with an automatic sphygmomanometer (BP98A; Saffron) while the mice were restrained.
(§3) Mouse plasma Ucn2 and BNP were quantified by a mouse Ucn2 ELISA kit (Yanaihara), and by a BNP Enzyme Immunoassay kit (RayBiotech Inc.), respectively, according to the manufacturer's instructions.
Tissue samples were embedded in OCT compound (Sakura Finetek) and snap-frozen in liquid nitrogen. Left ventricular myocardium sections (6 μm slices) were stained with Picro-Sirius red with standard protocols and viewed with a BX51 microscope (Olympus). Cardiac fibrosis in 20 random images was quantified in ImageJ software.
We next investigated whether treatment with the Crhr2 antagonist, antisauvagine-30 (Rühmann et al., 1998, Proc. Natl. Acad. Sci. USA. 95:15264-15269), would attenuate the progression of established cardiac hypertrophy in mice. For this, continuous antisauvagine-30 infusion was initiated 1 wk after TAC surgery (FIG. 19).

Crhr2 [2] = assay: Continuous Ucn2 infusion through subcutaneous osmotic pump in mice for 4 wk; type: in vivo, mouse
Method: as §1, §2, §3
To examine the effect of long-term Ucn2 up-regulation in vivo, we implanted mice with osmotic pumps that release Ucn2.

Crhr2 [3] = assay: Continuous Ucn2 infusion in cardiomyocyte-specific Crhr2 knockout mice and control mice; type: in vivo, mouse
Excerpt: Crhr2^tm1a(KOMP)Wtsi mice on a C57BL/6 background were generated by the Knock Out Mice Program (KOMP) at the University of California Davis (Davis, Calif.) and Children's Hospital Oakland Research Institute (Oakland, Calif.). Crhr2^tm1a(KOMP)Wtsi mice were bred with mice expressing Flp recombinase to obtain Crhr2 conditional KO mice (Crhr2^flox/flox mice). Crhr2^flox/flox mice were backcrossed at least 10 times to wild-type C57BL/6 genetic background mice. Tamoxifen-inducible, cardiomyocyte-specific Crhr2 knockout mice (cmc-Crhr2-KOs) were generated by intercrossing the αMHC-CreERT2 line to Crhr2^flox/flox mice (Takefuji et al., 2012, Circulation. 126:1972-1982). Cre-mediated recombination of floxed alleles was induced with an intraperitoneal injection of 1 mg tamoxifen dissolved in 100 μl Miglyol for 5 consecutive days. Vehicle-treated mice received Miglyol only, and αMHC-CreERT2+/−-Crhr2^wt/wt mice were used as controls. Experiments were performed 2 wk after the end of induction.
as §1, §2
To examine the functional significance of Crhr2 in cardiomyocytes in vivo, we generated mice with tamoxifen-inducible cardiomyocyte-specific Crhr2 deficiency (cmc-Crhr2-KO) by mating αMHC-CreERT2 mice with Crhr2^flox/flox mice.

[4] = acute intravenous injection; cited from earlier work

## antisauvagine-30
Crhr2 [1]; TAC mice, 100 ng/g/day infusion from 1 wk after TAC, day 35, FIG. 22
  plasma BNP: strong reduction
Crhr2 [1]; TAC mice, 100 ng/g/day infusion from 1 wk after TAC, day 35, FIG. 23
  cardiac hypertrophy (left ventricular weight/tibia length ratio): strong reduction
Crhr2 [1]; TAC mice, 100 ng/g/day infusion from 1 wk after TAC, day 35, FIG. 24
  cardiac fibrosis (fibrosis area): strong reduction
Crhr2 [1]; TAC mice, 100 ng/g/day infusion from 1 wk after TAC, FIG. 20
  systolic blood pressure: without significantly affecting systolic blood pressure
Crhr2 [1]; TAC mice, 100 ng/g/day infusion from 1 wk after TAC, FIG. 21
  cardiac output (left ventricular fractional shortening): protected mice from further deterioration of cardiac output

## urocortin 2 (VILSLDVPIGLLRILLEQARYKAARNQAATNAQILAHV; ends and bridges not checked; UniProt Q99ML8 73-110, looked up) [Ucn2, Ligand/agonist of Crhr2, obtained from Peptide Institute]
Crhr2 [1]; 4 wk of sustained Ucn2 infusion initiating 1 wk after TAC surgery
  TAC-induced cardiac dysfunction: accelerated TAC-induced cardiac dysfunction
Crhr2 [2]; 4 wk Ucn2 infusion 100 ng/g/day, FIG. 8
  left ventricular fractional shortening: decrease in left ventricular fractional shortening
Crhr2 [2]; 4 wk Ucn2 infusion 100 ng/g/day, FIG. 9
  systolic blood pressure: without significantly affecting systolic blood pressure
Crhr2 [2]; 4 wk Ucn2 infusion 100 ng/g/day, FIG. 10
  blood levels of brain natriuretic peptide (BNP): significantly increased
Crhr2 [2]; 4 wk Ucn2 infusion 25, 50 or 100 ng/g/day, FIGS. 6 and 7
  cardiac hypertrophy, left ventricular weight to tibia length ratio: increased left ventricular weight to tibia length ratio in a dose-dependent manner
Crhr2 [2]; after 4 wk of sustained Ucn2 infusion (25, 50 or 100 ng/g/day), osmotic pump, blood, FIG. 5
  circulating Ucn2 levels: elevated similar to those observed after TAC
Crhr2 [3]; cmc-Crhr2-KO mice, 4 wk of continuous Ucn2 infusion 100 ng/g/day, FIG. 13
  fractional shortening decrease: significantly attenuated
Crhr2 [3]; cmc-Crhr2 KO mice, 4 wk Ucn2 100 ng/g/day, FIG. 12
  Ucn2-induced hypertrophic response (left ventricular weight/tibia length ratio): failed to show a Ucn2-induced hypertrophic response
Crhr2 [3]; control mice, 4 wk of continuous Ucn2 infusion 100 ng/g/day, FIG. 13
  fractional shortening: decreased fractional shortening
[4]
  cardiac contraction: accelerate cardiac contraction
